From ChEMBL document CHEMBL4145548, “Pyrimidine-chloroquinoline hybrids: Synthesis and antiplasmodial activity” (Eur J Med Chem, 2018)
Values after ≈ are worked out from the molar mass of the structure shown. Active and inactive are the calls of the source. The calls are words filed in the database; no cut-off is given here.

What was measured:
Plasmodium falciparum [1] = assay: microbe, parasite or virus in culture; conditions: Dd2
Description: Antiplasmodial activity against chloroquine-resistant Plasmodium falciparum Dd2 by LDH release assay

in vitro = conditions: monkey, Vero cells
Description: Selectivity index, ratio of IC50 for African green monkey Vero cells to IC50 for chloroquine-sensitive Plasmodium falciparum NF54

Vero = assay: Cytotoxicity against African green monkey Vero cells assessed as reduction in cell viability by MTT assay; assay type: cell-based; conditions: Chlorocebus sabaeus
[2] = Solubility in n-octanol at pH 7.4 after 24 hrs by HPLC analysis; assay type: physicochemical
[3] = Aqueous solubility in pH 7.4 PBS buffer after 24 hrs by HPLC analysis; assay type: physicochemical
[4] = n-octanol-phosphate buffer distribution coefficient, log D of the compound at pH 7.4 after 1 hr by HPLC method; assay type: physicochemical
Plasmodium falciparum [5] = assay: microbe, parasite or virus in culture; conditions: NF54
Description: Antiplasmodial activity against chloroquine-sensitive Plasmodium falciparum NF54 by LDH release assay

Plasmodium falciparum [6] = assay: Potency index, ratio of chloroquine IC50 to compound IC50 for antiplasmodial activity against chloroquine-resistant Plasmodium falciparum Dd2; assay type: functional
Calf thymus DNA [7] = assay: Binding affinity to calf thymus DNA at 66 uM by UV-visible absorption spectral analysis; assay type: nucleic-acid assay; conditions: Bos taurus
DNA [8] = assay: Binding affinity to Escherichia coli pUC18 DNA at 17.1 uM by fluorimetry analysis; assay type: nucleic-acid assay
mu-oxodimeric heme [9] = assay: Binding affinity to mu-oxodimeric heme at pH 5.8 by titration-based UV-vis spectrophotometric analysis
Calf thymus DNA [10] = assay: Binding affinity to calf thymus DNA at 17.1 uM by fluorimetry analysis; assay type: nucleic-acid assay; conditions: Bos taurus
unidentified = assay: Inhibition of acetate buffer-initiated beta-hematin polymerization at 1.2 equiv measured after 1 hr by FT-IR spectroscopic method
Heme [11] = assay: Binding affinity to monomeric heme assessed as decrease in soret band intensity up to 40 uM at pH 5.6 to 7.4 by titration-based UV-vis spectrophotometric analysis
Calf thymus DNA [12] = assay: Binding affinity to calf thymus DNA by UV-visible absorption spectral analysis; assay type: nucleic-acid assay; conditions: Bos taurus
Calf thymus DNA [13] = assay: Binding affinity to calf thymus DNA assessed as change in melting temperature at DNA to compound ratio of 5:1; assay type: nucleic-acid assay; conditions: Bos taurus
Heme [14] = assay: Binding affinity to monomeric heme at pH 5.6 by titration-based UV-vis spectrophotometric analysis
Calf thymus DNA [15] = assay: Binding affinity to calf thymus DNA assessed as association constant by Benesi-Hildebrand equation analysis; assay type: nucleic-acid assay; conditions: Bos taurus
mu-oxodimeric heme [16] = assay: Binding affinity to mu-oxodimeric heme assessed as decrease in soret band intensity up to 26.7 uM at pH 5.8 by titration-based UV-vis spectrophotometric analysis
DNA [17] = assay: Binding affinity to Escherichia coli pUC18 DNA by UV-visible absorption spectral analysis; assay type: nucleic-acid assay
Heme [18] = assay: Binding affinity to monomeric heme at pH 7.4 by titration-based UV-vis spectrophotometric analysis
Heme [19] = assay: Binding affinity to monomeric heme at 5 umol by HRMS mass spectrum analysis
Heme [20] = assay: Binding affinity to monomeric heme by 1H NMR method

| Compound | IC50 (Vero) [nM] | solubility at 24 h [2] [µM] | solubility at 24 h [3] [µM] | logD at 1 h [4] | IC50 (Plasmodium falciparum [5]) [nM] | Ratio IC50 (Plasmodium falciparum [6]) | other results |
| --- | --- | --- | --- | --- | --- | --- | --- |
| CCOC(=O)c1c(C)nc(OCc2cn(CCCNc3ccnc4cc(Cl)ccc34)nn2)nc1C | > 201000 | 21.2 (≈ 10.5 µg/mL) | 8.01 (≈ 3.97 µg/mL) | 0.42 | 700 |  | IC50 (Plasmodium falciparum [1]): 1110 nM; selectivity ratio (in vitro): > 287 |
| COC(=O)c1c(C)nc(OCc2cn(CCCNc3ccnc4cc(Cl)ccc34)nn2)nc1-c1ccccc1 | 156000 | 34.2 (≈ 18.6 µg/mL) | 5.64 (≈ 3.07 µg/mL) | 0.78 | 1010 |  | IC50 (Plasmodium falciparum [1]): 1650 nM; selectivity ratio (in vitro): 154 |
| Cc1nc(OCc2cn(CCNc3ccnc4cc(Cl)ccc34)nn2)nc(-c2ccc([N+](=O)[O-])cc2)c1C(=O)OC(C)C | 150000 | 54.4 (≈ 32.8 µg/mL) | 7.03 (≈ 4.24 µg/mL) | 0.88 | 180 |  | IC50 (Plasmodium falciparum [1]): 990 nM; selectivity ratio (in vitro): 833 |
| Clc1ccc2c(NCCCCNc3nccc(Cl)n3)ccnc2c1 |  |  |  |  |  | 3.2 |  |
| CCOC(=O)c1c(C)nc(OCc2cn(-c3ccnc4cc(Cl)ccc34)nn2)nc1-c1ccccc1 |  | 66.2 (≈ 33.2 µg/mL) | 5.47 (≈ 2.74 µg/mL) | 1.08 | 12200 |  |  |
| Cc1nc(OCc2cn(CCCNc3ccnc4cc(Cl)ccc34)nn2)nc(-c2ccccc2)c1C(=O)OC(C)C | 28500 | 63.5 (≈ 36.3 µg/mL) | 1.21 (≈ 0.692 µg/mL) | 1.72 | 330 |  | IC50 (Plasmodium falciparum [1]): 610 nM; selectivity ratio (in vitro): 86.4 |
| Clc1ccc2c(NCCCNc3nccc(N4CCOCC4)n3)ccnc2c1 |  |  |  |  |  | 3.2 |  |
| Clc1ccc2c(NCCCCCCCNc3nccc(Cl)n3)ccnc2c1 |  |  |  |  |  | 3.2 |  |
| Clc1ccc2c(NCCCNc3nccc(N4CCNCC4)n3)ccnc2c1 |  |  |  |  |  | 3.2 |  |
| Clc1ccc2c(NCCCCCCCCNc3nccc(Cl)n3)ccnc2c1 |  |  |  |  |  | 3.2 |  |
| Clc1ccnc(N2CCOCC2)n1 |  |  |  |  |  | 3.2 |  |
| Cc1nc(OCc2cn(CCCNc3ccnc4cc(Cl)ccc34)nn2)nc(-c2ccc([N+](=O)[O-])cc2)c1C(=O)OC(C)C | 15200 | 14.9 (≈ 9.18 µg/mL) | 0.55 (≈ 0.339 µg/mL) | 1.43 | 48 |  | Activity (Calf thymus DNA [7]): Active; IC50 (Plasmodium falciparum [1]): 4590 nM; selectivity ratio (in vitro): 318; Activity (DNA [8]): Active; log K (mu-oxodimeric heme [9]): 5.43; Activity (Calf thymus DNA [10]): Active; inhibition (unidentified): Active; Activity (Heme [11]): Active; log K (Calf thymus DNA [12]): 3.74; ΔTm (Calf thymus DNA [13]): 2.5 °C; log K (Heme [14]): 4.27; log K (Calf thymus DNA [15]): 2.29; Activity (mu-oxodimeric heme [16]): Active; log K (DNA [17]): 3.92; log K (Heme [18]): 4.68; Activity (Heme [19]): Active; Activity (Heme [20]): Active |
| Cc1nc(OCc2cn(-c3ccnc4cc(Cl)ccc34)nn2)nc(-c2ccccc2)c1C(=O)OC(C)C |  | 52.5 (≈ 27 µg/mL) | 1.78 (≈ 0.917 µg/mL) | 1.46 | 14000 |  |  |
| Clc1ccc2c(NCCCNc3ccnc(N4CCOCC4)n3)ccnc2c1 |  |  |  |  |  | 3.2 |  |
| Clc1ccc2c(NCCNc3nccc(Cl)n3)ccnc2c1 |  |  |  |  |  | 3.2 |  |
| COC(=O)c1c(C)nc(OCc2cn(-c3ccnc4cc(Cl)ccc34)nn2)nc1-c1ccccc1 |  | 16.3 (≈ 7.96 µg/mL) | 3.31 (≈ 1.61 µg/mL) | 0.69 | 15800 |  |  |
| Clc1ccc2c(NCCCOc3nccc(Cl)n3)ccnc2c1 |  |  |  |  |  | 3.2 |  |
| COC(=O)c1c(C)nc(OCc2cn(CCNc3ccnc4cc(Cl)ccc34)nn2)nc1-c1ccccc1 |  | 44.7 (≈ 23.7 µg/mL) | 11.3 (≈ 5.99 µg/mL) | 0.58 | 10400 |  |  |
| CC[C@H]1CN2CCc3cc(OC)c(OC)cc3[C@@H]2C[C@@H]1C[C@H]1NCCc2cc(OC)c(OC)cc21 [EMETINE] | 176 |  |  |  |  |  |  |

| Compound | IC50 (Vero) [nM] | solubility at 24 h [2] [µM] | solubility at 24 h [3] [µM] | logD at 1 h [4] | IC50 (Plasmodium falciparum [5]) [nM] | Ratio IC50 (Plasmodium falciparum [6]) | other results |
| --- | --- | --- | --- | --- | --- | --- | --- |
| CCOC(=O)c1c(C)nc(OCc2cn(CCCNc3ccnc4cc(Cl)ccc34)nn2)nc1-c1ccccc1 | 153000 | 48.3 (≈ 27 µg/mL) | 3.11 (≈ 1.74 µg/mL) | 1.19 | 890 |  | IC50 (Plasmodium falciparum [1]): 1370 nM; selectivity ratio (in vitro): 172 |
| CCOC(=O)c1c(C)nc(OCc2cn(CCNc3ccnc4cc(Cl)ccc34)nn2)nc1-c1ccccc1 | 149000 | 21.7 (≈ 11.8 µg/mL) | 3.3 (≈ 1.8 µg/mL) | 0.81 | 1490 |  | IC50 (Plasmodium falciparum [1]): 2520 nM; selectivity ratio (in vitro): 100 |
| CCN(CC)CCCC(C)Nc1ccnc2cc(Cl)ccc12 (stereo not given) |  |  |  |  |  |  | ΔTm (Calf thymus DNA [13]): 4 °C |
| Clc1ccc2c(NCCCNc3nccc(N4CCCC4)n3)ccnc2c1 |  |  |  |  |  | 3.2 |  |
| CCOC(=O)c1c(C)nc(OCc2cn(-c3ccnc4cc(Cl)ccc34)nn2)nc1C |  | 17.8 (≈ 7.8 µg/mL) | 7.18 (≈ 3.15 µg/mL) | 0.39 | 84200 |  |  |
| Clc1ccc2c(NCCCCCCCCCCNc3nccc(Cl)n3)ccnc2c1 |  |  |  |  |  | 3.2 |  |
| Clc1ccc2c(NCCCCCCCCCCCCNc3nccc(Cl)n3)ccnc2c1 |  |  |  |  |  | 3.2 |  |
| Cc1nc(OCc2cn(CCNc3ccnc4cc(Cl)ccc34)nn2)nc(-c2ccccc2)c1C(=O)OC(C)C | 149000 | 53.1 (≈ 29.6 µg/mL) | 3.21 (≈ 1.79 µg/mL) | 1.21 | 640 |  | IC50 (Plasmodium falciparum [1]): 2000 nM; selectivity ratio (in vitro): 232 |
| Clc1ccc2c(NCCCNc3ccnc(N4CCCCC4)n3)ccnc2c1 |  |  |  |  |  | 3.2 |  |
| Cc1nc(OCc2cn(-c3ccnc4cc(Cl)ccc34)nn2)nc(-c2ccccc2[N+](=O)[O-])c1C(=O)OC(C)C |  | 37.4 (≈ 20.9 µg/mL) | 2.93 (≈ 1.64 µg/mL) | 1.1 | 16100 |  |  |
| Clc1ccc2c(NCCCNc3nccc(N4CCCCC4)n3)ccnc2c1 |  |  |  |  |  | 3.2 |  |
| Cc1nc(OCc2cn(-c3ccnc4cc(Cl)ccc34)nn2)nc(-c2ccc([N+](=O)[O-])cc2)c1C(=O)OC(C)C |  | 60.5 (≈ 33.9 µg/mL) | 4.54 (≈ 2.54 µg/mL) | 1.12 | 7860 |  |  |
| Clc1ccc2c(NCCCCCCCCNc3ccnc(Cl)n3)ccnc2c1 |  |  |  |  |  | 3.2 |  |
| CCOC(=O)c1c(C)nc(OCc2cn(CCNc3ccnc4cc(Cl)ccc34)nn2)nc1C | > 207000 | 35.6 (≈ 17.2 µg/mL) | 19.1 (≈ 9.21 µg/mL) | 0.27 | 2490 |  | IC50 (Plasmodium falciparum [1]): 8140 nM; selectivity ratio (in vitro): > 83 |
| Clc1ccc2c(NCCCNc3ccnc(Cl)n3)ccnc2c1 |  |  |  |  |  | 3.2 |  |
| Cc1nc(OCc2cn(CCNc3ccnc4cc(Cl)ccc34)nn2)nc(-c2ccccc2[N+](=O)[O-])c1C(=O)OC(C)C | 145000 | 16.7 (≈ 10.1 µg/mL) | 2.3 (≈ 1.39 µg/mL) | 0.86 | 530 |  | IC50 (Plasmodium falciparum [1]): 1080 nM; selectivity ratio (in vitro): 274 |
| Cc1nc(OCc2cn(CCCNc3ccnc4cc(Cl)ccc34)nn2)nc(-c2ccccc2[N+](=O)[O-])c1C(=O)OC(C)C | 23400 | 12.1 (≈ 7.49 µg/mL) | 0.58 (≈ 0.358 µg/mL) | 1.31 | 600 |  | IC50 (Plasmodium falciparum [1]): 860 nM; selectivity ratio (in vitro): 38.9 |
| Cc1nccc(NCCNc2ccnc3cc(Cl)ccc23)n1 |  |  |  |  |  | 3.2 |  |
| C[C@H]1[C@H](OC(=O)CCC(=O)O)O[C@@H]2O[C@@]3(C)CC[C@H]4[C@H](C)CC[C@@H]1[C@@]24OO3 [ARTESUNATE] |  |  |  |  | < 5200 |  |  |
